Data as given in patent US7585839B2, “Medical uses of intercellular communication facilitating compounds” (Zealand Pharma A/S, priority 2001, dated 2009).
Where a SMILES comes first, the peptide text is derived from it. [ ]: non-standard residue; d: D form. The star is where a group is joined. Dnp = O=[N+]([O-])c1ccc(*)c([N+](=O)[O-])c1; X1 = [N-]=[N+]=Nc1cc(O)c(C(=O)*)cc1I; Hyp = O=C(O)[C@@H]1C[C@@H](O)CN1; dHyp = O=C(O)[C@H]1C[C@H](O)CN1; Thz = O=C(O)[C@@H]1CSCN1; Acm = CC(=O)NC*; Sar = CNCC(=O)O

How the values were obtained:
[1] = tested on: phosphoinositol turnover in neonatal rat cardiomyocytes; test: Phosphoinositol turnover in primary cardiomyocyte cultures; assay type: cell-based
Experimental: Neonatal Wistar rats (1-2 days old) are used. Hank's calcium- and magnesium-free balanced salt solution, buffered with 10 mM HEPES is used for washing during cell separation procedures. The hearts are excised, the ventricles isolated and the tissue cut into small pieces. The myocardial cells are isolated by stepwise enzymatic degradation with collagenase 0.05%, as described by ^[35]. After repeated rounds of centrifugation and washing, the precipitated cells are resuspended in culture medium M199 with Earle's salt, 10% NCS, penicillin (75 U/mL), and streptomycin (75 U/mL) and pre-plated in a Petri dish for 90 minutes. The non-adherent cells are collected in the culture medium and plated in multidishes at 2.5*10^5 cells/well. The cultures are kept in a water-saturated CO2-incubator at 37° C. The cardiomyocyte cultures are used for analyses after 6-7 days.
Cardiomyocyte cultures are incubated for 48 hours in culture medium containing 4 μCi/mL myo-[2-^3H]inositol to label the inositol phospholipids. On the day of analysis the medium is replaced by a buffer solution containing lithium and incubated at 37° C., as described by Meier et al.^[36]. After at least five minutes this buffer is replaced by the same volume of buffer containing test compound and incubated for exactly 20 minutes. The reaction is stopped by rapid replacement of the buffer by ice cold 4% v/v perchloric acid (PCA) and incubation for at least 20 minutes at 0° C. The PCA-extract is neutralised and the [^3H]inositol phosphates are separated by anion-exchange chromatography using Amprep™ columns containing 100 mg SAX Quaternary amine. The [^3H]inositol mono-phosphates are eluted and radioactivity in the fraction measured by liquid scintillation counting.
Before adding test substances to the cultures, the cells are depleted of glucose and oxygen by incubating them in a N2-atmosphere in glucose-free lithium-buffer for 10 minutes at 37° C. Control cells are incubated likewise only at normal atmospheric conditions and in a buffer containing glucose.

[2] = tested on: calcium-induced arrythmias; test: Calcium-induced arrhythmia model in mice (CaCl2-induced 2nd degree AV-block); assay type: in vivo; design: CaCl2 mice Score: scale not given here; conditions: for CaCl2 mice In vivo, % / CaCl2 mice Score: calcium chloride induced arrythmia model; for In vivo activity: maximal effect, increase in time until 2nd degree AV-block relative to vehicle treated mice, i.v.
Experimental: The antiarrhythmic effects of compounds of this invention were tested in an in vivo model of calcium-induced arrythmias according to the model of Lynch et al.^[37]. […]. Commercial solutions of hypnorm and midazolam were diluted 1:1 in distilled water and one part diluted Hypnorm® is mixed with one part diluted midazolam.
The anaesthesia was induced by s.c. administration in a dose of 0.05-0.075 μl/10 gram mouse. An i.v. cannula was inserted into the tail vein. The lead II ECG signal was recorded continuously by positioning of a stainless steel ECG electrodes on the right forelimb and on the left hind limb. The ground electrode was placed on the right hind limb. The signal was amplified (×5.000-10.000) and filtered (0.1-150 Hz) via a Hugo Sachs Electronic model 689 ECG module. The analogue signal was digitised via a 12 bit data acquisition board (Data Translation model DT321) and sampled at 1000 Hz using the Notocord HEM 3.1 software for Windows NT. After a 10-min equilibration period, the test sample of drug was injected into the tail vein. Mice pre-treated with vehicle were tested as a measure of the control level in untreated animals. The injection volume was 100 μl in all experiments. Infusion of CaCl2 (30 mg/ml, 0.1 ml/min≈100 mg/kg/min (calciumchlorid-2-hydrat, Riedel-de Haën, Germany)) was started 3 min after i.v. administration of drug or vehicle.
The time lag to onset of 2nd degree AV-block was determined as the time from the start of CaCl2 infusion until the first arrhythmic event occured. An event of 2nd degree AV-block was defined as intermittent failure of the AV conduction characterised by a P-wave without the concomitant QRS complex.
Responses were expressed relative to the time until 2nd degree AV-block occurred in vehicle treated mice.

[3] = tested on: WB-F344 rat liver epithelial cells; conditions: cited from earlier work
[4] = In vitro plasma and serum stability, human; assay type: in vitro ADME
Experimental: The stability of peptides is analysed in serum and plasma. The peptides are incubated at 37° C. in plasma or serum and samples taken at approx. 9 regular intervals between t=0 and t=156 min are analysed by HPLC.
This is done by subsequent injections of the drug, plasma, and a co-injection with the drug and the plasma, followed by optimisation of the LC method parameters until a satisfactory separation is obtained. Three parallel experiments are performed for each plasma type. 100 ml of peptide is mixed with 900 ml plasma at t=0 and incubated at 37° C. (drug-plasma mixture conc. 0.1 mg/ml). Samples of 100 ml of the drug-plasma mixture are removed at appropriate intervals and the degradation stopped by precipitation of the sample with 10 ml MeCN:TFA 50:50 v/v. A control plasma sample without the drug treated in the same manner is also taken. The plasma samples are centrifuged for 15 min. at 12,000 rpm (Eppendorf centrifuge) at ambient temperature. The resulting supernatant solution is transferred to 300 ml HP autosamler vials and analyzed by HPLC. The samples are analyzed in the following order: blank, the peptide at 0.1 mg/mL, the plasma without the peptide, the three parallel samples for t=0, the three parallel samples for t=5 min. the three parallel samples for t=10 min. etc. And finally the three parallel samples for t=0 are repeated to make sure that there have been no degradation or other failure during the analyses. The sample concentrations (peak height in mAU) are plotted vs. time and fitted to a function describing a mono exponential decay (Excel).

Row | Compound | CaCl2 mice In vivo, % [2] | In vivo activity [2] | CaCl2 mice Score [2] | other results
1 | NC[C@H](O)c1ccc(O)c(O)c1 [Noradrenaline] |  |  |  | Emax of phosphoinositol turnover ([1]; atmosphere of N2 and depleted of glucose): 2248±702 cpm; Emax of phosphoinositol turnover ([1]; normal atmospheric and nutritional conditions): 3852±266 cpm
2 | Oc1ccc(C=Cc2cc(O)cc(O)c2)cc1 [Resveratrol, resveratrol] |  |  |  | time until calcium-induced block relative to animals treated with vehicle ([2]; iv, 0.1 umol/kg): 136±9%; prevention of down-regulation of GJIC by DDT, factor ([3]; 17-50 microM): 1.8; prevention of down-regulation of GJIC by TPA, factor ([3]; 17-50 microM): 2.7; increase of GJIC, factor compared with solvent vehicle controls ([3]; 17 to 50 microM, 6 h): 1.3
3 | CC(=O)N[C@@H](Cc1ccc(O)cc1)C(=O)N1CCC[C@H]1C(=O)N1C[C@H](O)C[C@H]1C(=O)NCC(=O)N[C@@H](C)C(=O)NCC(=O)O [Compound 1, Ac-Tyr-Pro-4Hyp-Gly-Ala-Gly-OH] (Ac-YP[Hyp]GAG-OH) | 50 +/− 20% | + (+ refers to 15-29% increase in time until arrhythmia) |  | 
4 | C[C@H](NC(=O)CN)C(=O)NCC(=O)N1C[C@@H](O)C[C@@H]1C(=O)N1CCC[C@@H]1C(=O)N[C@@H](Cc1ccc(O)cc1)C(N)=O [Compound 10, H-Gly-Ala-Gly-D-Hyp-D-Pro-Tyr-NH2] (H-GAG[dHyp][dP]Y-NH2) |  | +++ (+++ refers to >60% increase in time until arrhythmia) | 2 | 
5 | C[C@H](NC(=O)CNC(=O)[C@H](CC(N)=O)NC(=O)[C@H](Cc1ccc(O)cc1)NC(=O)[C@@H]1CCCN1C(=O)[C@@H]1C[C@@H](O)CN1)C(=O)NCC(N)=O [Compound 28, H-Hyp-Pro-Tyr-Asn-Gly-Ala-Gly-NH2] (H-[Hyp]PYNGAG-NH2) |  | (+) ((+) refers to <15% in time until arrhythmia) | 2 | 
6 | H-DY-DN-G-NH2 | 25 +/− 9% |  | 1 | 
7 | C[C@H](NC(=O)CN)C(=O)NCC(=O)N1C[C@H](O)C[C@H]1C(=O)N1CCC[C@H]1C(=O)N[C@@H](Cc1ccc(O)cc1)C(=O)N[C@@H](CC(N)=O)C(N)=O [H-AAP-10-Asn-NH2] (H-GAG[Hyp]PYN-NH2) | 31 +/− 6% |  |  | 
8 | CC(=O)N[C@@H](Cc1ccc(O)cc1)C(=O)N[C@@H](CC(=O)O)C(=O)N[C@@H](CC(N)=O)C(=O)NCC(N)=O [Ac-Y-D-N-G-NH2] (Ac-YDNG-NH2) | 17 +/− 8% |  |  | 
9 | CC(=O)NCC(=O)N[C@@H](CC(=O)O)C(=O)N[C@@H](CC(N)=O)C(=O)N[C@@H](Cc1ccc(O)cc1)C(N)=O [Ac-G-D-N-Y-NH2] (Ac-GDNY-NH2) | 19 +/− 8% |  |  | 
10 | C[C@H](NC(=O)CN)C(=O)NCC(=O)N1CSC[C@H]1C(=O)N1CCC[C@H]1C(=O)N[C@@H](Cc1ccc(O)cc1)C(N)=O [Compound 12, H-Gly-Ala-Gly-T4C-Pro-Tyr-NH2] (H-GAG[Thz]PY-NH2) | 32 +/− 6% | ++ (++ refers to 30-50% increase in time until arrhythmia) | 2 | 
11 | CF3C(O)-AAP10-NH2 | 48 +/− 13% |  | 3 | 
12 | NC(=O)C[C@@H](NC(=O)[C@@H](N)Cc1ccc(O)cc1)C(=O)NCC(=O)O [H-Y-DN-G-OH] (H-Tyr-[dN]-Gly-OH) | 39 +/− 9% |  |  | 
13 | H-Gly-Ala-Gly-Asn-Tyr-NH2 [Compound 39] | 53 +/− 15% | +++ (+++ refers to >60% increase in time until arrhythmia) | 2 | 
14 | C[C@H](NC(=O)CN)C(=O)N[C@@H](CC(N)=O)C(=O)N[C@@H](Cc1ccc(O)cc1)C(N)=O [H-GANY-NH2] (H-GANY-NH2) | 21 +/− 7% |  |  | 
15 | CC(=O)NCSC[C@H](NC(=O)[C@H](Cc1ccc(O)cc1)NC(=O)[C@@H]1CCCN1C(=O)[C@@H]1C[C@@H](O)CN1C(=O)CNC(=O)[C@H](C)NC(=O)CNC(=O)[C@@H](N)CSCNC(C)=O)C(N)=O [Compound 16, H-Cys(Acm)-Gly-Ala-Gly-Hyp-Pro-Tyr-Cys(Acm)-NH2] (H-C(Acm)GAG[Hyp]PYC(Acm)-NH2) | 23 +/− 10% | + (+ refers to 15-29% increase in time until arrhythmia) | 1 | 
16 | NCC(=O)NCC(=O)N[C@@H](Cc1ccc(O)cc1)C(N)=O [H-GGY-NH2] (H-Gly-Gly-Tyr-NH2) | 39 +/− 9% |  |  | 
17 | H-GAG[Hyp]PYKKKKKK-OH [Compound 48] | 64 +/− 10% |  | 3 | 
18 | CNCC(=O)N[C@@H](C)C(=O)N(C)CC(=O)N1C[C@H](O)C[C@H]1C(=O)N1CCC[C@H]1C(=O)N[C@@H](Cc1ccc(O)cc1)C(N)=O [Compound 29, H-Sar-Ala-Sar-Hyp-Pro-Tyr-NH2] (H-[Sar]A[Sar][Hyp]PY-NH2) |  | + (+ refers to 15-29% increase in time until arrhythmia) | 1 | 
19 | C[C@H](NC(=O)CNC(=O)[C@@H]1C[C@@H](O)CN1C(=O)[C@@H]1CCCN1C(=O)c1cc(I)c(N=[N+]=[N-])cc1O)C(=O)NCC(N)=O [Compound 32, ASAL(mono-iodo)-Pro-Hyp-Gly-Ala-Gly-NH2] (X1-P[Hyp]GAG-NH2) |  | +++ (+++ refers to >60% increase in time until arrhythmia) |  | 
20 | H-Gly-Asn-Tyr-NH2 [Compound 41] | 58 +/− 10% | ++ (++ refers to 30-50% increase in time until arrhythmia) | 2 | 
21 | NCC(=O)N[C@@H](CCCCNc1ccc([N+](=O)[O-])cc1[N+](=O)[O-])C(=O)N[C@@H](Cc1ccc(O)cc1)C(N)=O [H-GK(DNP)Y-NH2] (H-Gly-Lys(Dnp)-Tyr-NH2) | 25 +/− 7% |  |  | 
22 | [Pro^4]AAP10-NH2 [reference compound] | 62 +/− 9% |  | 3 | 
23 | H-PYNGAG[Hyp]-NH2 [Compound 27] |  |  |  | stability in plasma and serum compared with AAP10 [4]: considerably more stable
